Test results as given in publication PMC3634028, “Novel α-MSH Peptide Analogues with Broad Spectrum Antimicrobial Activity” (PLoS ONE, 2013).
In brackets after ≈: the same amount, converted by molar mass. Where a SMILES comes first, the peptide text is derived from it.

Experiments:
C. krusei = assay type: cell-based, Candida krusei; details: 48 h
Description: (§1) Two Candida albicans isolates were purchased from the ATCC (No. 24433 and 76615). The other yeast isolates were obtained from the collection of Fondazione Ca' Granda- Ospedale Maggiore Policlinico, Milano. The collection included C. albicans (7 isolates), C. glabrata (3 isolates), and C. krusei (3 isolates). Antifungal susceptibility testing was performed using the broth microdilution method according to the NCCLS M27-A guidelines (National Committee for Clinical Laboratory Standards. 1997, Reference method for broth dilution antifungal susceptibility testing of yeasts and approved standard NCCLS document M27-A. National Committee for Clinical Laboratory Standards, Wayne, Pa.). […] After 48 h of incubation, the plates were inspected for purity. A colony was taken from the agar plate and transferred into 5 mL Sabouraud-dextrose broth and incubated for 48 h at 35°C. Cells were centrifuged at 1,000× g for 10 min and the pellet was washed twice with distilled water. Cells were counted and suspended in RPMI 1640 medium buffered to pH 7.0 with 0.165 mol l^−1 morpholinepropanesulphonic acid (MOPS) buffer (Sigma) to obtain the two times test inoculum (1×10^3 to 5×10^3 CFU/mL). […] The MIC90, i.e. the minimum inhibitory concentrations endpoint were determined as 90% reduction in turbidity measured using a spectrophotometer (Titertek multiscan at 690 nm wave length).

C. albicans = assay type: cell-based, Candida albicans; details: 48 h
Description: as §1

[1] = system: Candida strains (C. albicans, C. glabrata, C. krusei); experiment: Anti-Candida assay, overall result in words; assay type: cell-based, Candida spp; details: standard culture conditions, broth culture medium
Description: as §1

Candida = system: Candida; set-up: method as in PMID 15743181; details: cited from earlier work
[2] = system: HaCaT keratinocyte cell line; experiment: Cytotoxic activity, MTT colorimetric method; assay type: cell-based, human; details: 24 h; for cell death / killing of human keratinocytes: highest peptide concentration used (100 µM)
Description: Effects on viability was tested in the immortalised keratinocyte cell line HaCaT using the [3(4,5-dimethylthiazol-2yl)2,5-diphenyltetrazolium bromide] (MTT) colorimetric method in which the intensity of the dye is proportional to the number of viable cells. MTT is a tetrazolium salt which is reduced to a colored formazan product by mitochondrial reductases present only in metabolically active cells. Cells were cultured in Dulbecco's modified Eagle's medium (DMEM; Sigma) supplemented with 10% heat inactivated fetal bovine serum, glutamine (4 mM) and gentamicin. Afterwards, cells were plated in triplicate wells of a microtiter plate, at 4×10^4 cells/well in DMEM supplemented with 2% serum without antibiotic. After overnight incubation at 37°C in a 5% CO2 atmosphere, the medium was replaced with […] fresh DMEM supplemented with the peptides at different concentrations. The plate was incubated for 24 h at 37°C in a 5% CO2 atmosphere. Then, DMEM was removed and replaced with Hank's medium (136 mM NaCl; 4.2 mM Na2HPO4; 4.4 mM KH2PO4; 5.4 mM KCl; 4.1 mM NaHCO3, pH 7.2, supplemented with 20 mM D-glucose) containing 0.5 mg/ml MTT. After 4 h incubation, the formazan crystals were dissolved by adding 100 µl of acidified isopropanol and absorption of each well was measured using a microplate reader (Infinite M200; Tecan, Salzburg, Austria) at 570 nm. Cell viability was e expressed as percentage of viability in control cells (cells not treated with peptide).
Figure 1 Effects of the synthetic melanocortins on viability of HaCat cells. Cells were plated in wells of a microtiter plate, at 4×10^4 cells/well in DMEM supplemented with 2% serum without antibiotic. After overnight incubation at 37°C in a 5% CO2 atmosphere, the medium was replaced with 100 µl fresh DMEM supplemented with the peptides at different concentrations. […] Cell viability is expressed as percentage of viability in control cells (cells not treated with the peptide).

[3] = system: Staphylococcus epidermidis ATCC 12228; assay type: cell-based; details: ATCC 12228, 18 h
Description: (§2) The strains used for the antimicrobial assays were the Gram-negative bacteria Acinetobacter baumani ATCC 19606, Escherichia coli D21, Pseudomonas aeruginosa ATCC 27853, and Pseudomonas syringae pv tabaci 1918NCPPB and the Gram-positive bacteria Bacillus megaterium Bm11, Staphylococcus aureus ATCC 25923, and Staphylococcus epidermidis ATCC 12228. Susceptibility testing was performed by adapting the microbroth dilution method outlined by the Clinical and Laboratory Standards Institute, using sterile 96-well plates (Falcon NJ, USA). The bacterial growth was aseptically measured by absorbance at 590 nm with a spectrophotometer (UV-1700 Pharma Spec Shimadzu, Tokyo, Japan). Afterwards, aliquots (50 µl) of bacteria in mid-log phase at a concentration of 2×10^6 colony-forming units (CFU)/mL in culture medium (Mueller-Hinton, MH) were added to 50 µl of MH broth containing the peptide in serial 2-fold dilutions ranging from 1.56 to 100 µM. Inhibition of microbial growth was determined by measuring the absorbance at 590 nm, after an incubation of 18 h at 37°C with a microplate reader (Infinite M200; Tecan, Salzburg, Austria).

[4] = system: Staphylococcus aureus ATCC 25923; assay type: cell-based; details: ATCC 25923, 18 h
Description: as §2

Escherichia coli D21 = assay type: cell-based; details: D21, 18 h
Description: as §2

Bacillus megaterium Bm11 = assay type: cell-based; details: Bacillus Bm11, 18 h
Description: as §2

[5] = system: Pseudomonas syringae pv tabaci 1918NCPPB; assay type: cell-based; details: 18 h
Description: as §2

[6] = system: Acinetobacter baumani ATCC 19606; assay type: cell-based; details: ATCC 19606, 18 h
Description: as §2

[7] = system: Pseudomonas aeruginosa ATCC 27853; assay type: cell-based; details: ATCC 27853, 18 h
Description: as §2

C. glabrata = assay type: cell-based, Candida glabrata; details: 48 h
Description: as §1

| SMILES | MIC 90 (C. krusei) [µM] | MIC 90 (C. albicans) [µM] | antimicrobial / anti-Candida activity (in words) [1] | killing of Candida (in words) (Candida; in growth medium ref 7) | Candida organisms killed (Candida; organisms incubated in distilled water ref 7) [%] | cell death / killing of human keratinocytes [2] | MIC 100 [3] [µM] | MIC 100 [4] [µM] | MIC 100 (Escherichia coli D21) [µM] | MIC 100 (Bacillus megaterium Bm11) [µM] | MIC 100 [5] [µM] | MIC 100 [6] [µM] | MIC 100 [7] [µM] | MIC 90 (C. glabrata) [µM] | toxic effects on human keratinocytes (in words) ([2]; at 50–100 µM concentrations) | toxic activity on human keratinocytes (in words) ([2]; up to a concentration of 12.5 µM) |
| --- | --- | --- | --- | --- | --- | --- | --- | --- | --- | --- | --- | --- | --- | --- | --- | --- |
| CC(C)[C@H](NC(=O)[C@H](Cc1ccccc1)NC(=O)[C@H](CCCCN)NC(=O)CNC(=O)[C@H](Cc1c[nH]c2ccccc12)NC(=O)[C@H](CCCNC(=N)N)NC(=O)[C@@H](Cc1ccc2ccccc2c1)NC(=O)[C@@H](N)Cc1c[nH]cn1)C(N)=O [DNal, H-His-D(2′)Nal-Arg-Trp-Gly-Lys-Phe-Val-NH2, reference compound] (HELM PEPTIDE1{H.[O=C([C@@H](Cc1ccc2ccccc2c1)N[*:1])[*:2]].R.W.G.K.F.V.[am]}$$$$V2.0) | >100 | >100 | did not have substantial antimicrobial activity | did not kill | 100 | 50–100% | 50 (≈ 56.3 µg/mL) | >100 | >100 | 6 (≈ 6.75 µg/mL) | >100 | >100 | 100 (≈ 113 µg/mL) | >100 |  |  |
| CC(C)[C@H](NC(=O)[C@H](Cc1ccccc1)NC(=O)[C@H](CCCCN)NC(=O)[C@@H](NC(=O)[C@H](Cc1c[nH]c2ccccc12)NC(=O)[C@H](CCCNC(=N)N)NC(=O)[C@@H](Cc1ccc2ccccc2c1)NC(=O)[C@@H](N)Cc1c[nH]cn1)C(C)(C)C)C(N)=O [Peptide 3, H-His-D(2′)Nal-Arg-Trp-tBuGly-Lys-Phe-Val-NH2] (HELM PEPTIDE1{H.[O=C([C@@H](Cc1ccc2ccccc2c1)N[*:1])[*:2]].R.W.[CC(C)(C)[C@H](N[*:1])C(=O)[*:2]].K.F.V.[am]}$$$$V2.0) | >100 | >100 | inactive |  |  | less than 30% | 50 (≈ 59.1 µg/mL) | >100 | 50 (≈ 59.1 µg/mL) | 6.25 (≈ 7.38 µg/mL) | >100 | 100 (≈ 118 µg/mL) | 50 (≈ 59.1 µg/mL) | >100 |  |  |
| CC(C)[C@H](NC(=O)[C@H](Cc1ccccc1)NC(=O)[C@H](CCCCN)NC(=O)C1(NC(=O)[C@H](Cc2c[nH]c3ccccc23)NC(=O)[C@H](CCCNC(=N)N)NC(=O)[C@@H](Cc2ccc3ccccc3c2)NC(=O)[C@@H](N)Cc2c[nH]cn2)CC1)C(N)=O [Peptide 4, H-His-D(2′)Nal-Arg-Trp-Ac3c-Lys-Phe-Val-NH2] (HELM PEPTIDE1{H.[O=C([C@@H](Cc1ccc2ccccc2c1)N[*:1])[*:2]].R.W.[O=C(C1(N[*:1])CC1)[*:2]].K.F.V.[am]}$$$$V2.0) | >100 | >100 | inactive |  |  | less than 30% | 25 (≈ 28.8 µg/mL) | 100 (≈ 115 µg/mL) | 100 (≈ 115 µg/mL) | 6.25 (≈ 7.2 µg/mL) | >100 | 50 (≈ 57.6 µg/mL) | 50 (≈ 57.6 µg/mL) | >100 |  |  |
| CC(C)[C@H](NC(=O)[C@H](Cc1ccccc1)NC(=O)[C@H](CCCCN)NC(=O)[C@H](Cc1ccccc1)NC(=O)[C@H](Cc1c[nH]c2ccccc12)NC(=O)[C@H](CCCNC(=N)N)NC(=O)[C@@H](Cc1ccc2ccccc2c1)NC(=O)[C@@H](N)Cc1c[nH]cn1)C(N)=O [Peptide 9, H-His-D(2′)Nal-Arg-Trp-Phe-Lys-Phe-Val-NH2] (HELM PEPTIDE1{H.[O=C([C@@H](Cc1ccc2ccccc2c1)N[*:1])[*:2]].R.W.F.K.F.V.[am]}$$$$V2.0) | >100 |  | decreased activity |  |  | less than 30% | 12.5 (≈ 15.2 µg/mL) | 50 (≈ 60.8 µg/mL) | 50 (≈ 60.8 µg/mL) | 3.125 (≈ 3.8 µg/mL) | 100 (≈ 122 µg/mL) | 25 (≈ 30.4 µg/mL) | 25 (≈ 30.4 µg/mL) | >100 |  |  |
| CC(C)[C@H](NC(=O)[C@H](Cc1ccccc1)NC(=O)[C@H](CCCCN)NC(=O)[C@H](CC1CCCCC1)NC(=O)[C@H](Cc1c[nH]c2ccccc12)NC(=O)[C@H](CCCNC(=N)N)NC(=O)[C@@H](Cc1ccc2ccccc2c1)NC(=O)[C@@H](N)Cc1c[nH]cn1)C(N)=O [Peptide 10, H-His-D(2′)Nal-Arg-Trp-Cha-Lys-Phe-Val-NH2] (HELM PEPTIDE1{H.[O=C([C@@H](Cc1ccc2ccccc2c1)N[*:1])[*:2]].R.W.[Cha].K.F.V.[am]}$$$$V2.0) |  |  | potency similar to that of peptide 8 |  |  |  | 6.25 (≈ 7.63 µg/mL) | 12.5 (≈ 15.3 µg/mL) | 6.25 (≈ 7.63 µg/mL) | 3.125 (≈ 3.82 µg/mL) | 25 (≈ 30.5 µg/mL) | 12.5 (≈ 15.3 µg/mL) | 25 (≈ 30.5 µg/mL) | >100 | exerted toxic effects | completely devoid of toxic activity |
